pIC50: −log10 of the molar value. Calls of active or inactive are those of the source. The calls are words filed in the database; no cut-off is given here.
How the values were obtained:
[1] = molecular target: T1, Bifunctional epoxide hydrolase 2 (Homo sapiens) (UniProt P34913); assay: Mixed type inhibition of sEH (unknown origin) at 0.78 to 6.25 uM using PHOME as substrate measured for 30 mins by Lineweaver-burk plot method
T1 sequence (whole entry): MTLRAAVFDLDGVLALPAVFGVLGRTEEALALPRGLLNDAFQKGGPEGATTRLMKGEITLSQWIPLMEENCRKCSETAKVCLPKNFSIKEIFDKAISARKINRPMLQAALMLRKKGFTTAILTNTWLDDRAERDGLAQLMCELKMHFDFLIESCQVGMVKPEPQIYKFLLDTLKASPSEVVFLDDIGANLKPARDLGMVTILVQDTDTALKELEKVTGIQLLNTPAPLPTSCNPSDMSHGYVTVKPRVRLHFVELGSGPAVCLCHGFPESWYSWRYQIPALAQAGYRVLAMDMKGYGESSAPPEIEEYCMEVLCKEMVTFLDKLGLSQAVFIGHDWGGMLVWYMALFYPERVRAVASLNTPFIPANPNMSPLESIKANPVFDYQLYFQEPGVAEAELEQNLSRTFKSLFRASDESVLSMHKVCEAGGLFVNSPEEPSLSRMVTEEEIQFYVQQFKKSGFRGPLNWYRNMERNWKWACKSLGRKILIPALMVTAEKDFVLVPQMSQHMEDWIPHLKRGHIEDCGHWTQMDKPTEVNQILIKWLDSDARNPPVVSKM

[2] = molecular target: T1, Bifunctional epoxide hydrolase 2 (Homo sapiens); assay: Inhibition of sEH (unknown origin) at 100 uM using PHOME as substrate after 40 mins by fluorescence photometric method relative to control
[3] = molecular target: T2, Bifunctional epoxide hydrolase 2 (Homo sapiens, UniProt P34913); assay: (§1) Inhibition of sEH (unknown origin) using PHOME as substrate after 40 mins by fluorescence photometric method
T2 sequence (P34913 whole entry): T1 sequence (whole entry)

[4] = molecular target: T1, Bifunctional epoxide hydrolase 2 (Homo sapiens); assay: as §1
[5] = molecular target: T1, Bifunctional epoxide hydrolase 2 (Homo sapiens); assay: Competitive inhibition of sEH (unknown origin) at 0.78 to 6.25 uM using PHOME as substrate measured for 30 mins by Lineweaver-burk plot method
[6] = molecular target: T1, Bifunctional epoxide hydrolase 2 (Homo sapiens); settings: 0.78 to 6.25 uM

Row | SMILES | inhibition [1] | inhibition [2] | pIC50 [3] | inhibition [4] | inhibition [5] | inhibition [6]
1 | COc1ccc(/C=C/C(=O)OCC(=O)c2ccc(O)c(O)c2)cc1O | Active | 98.3% | 5.80 | Dose-dependent effect | – | –
2 | CC(C)=C/C=C1/C(=O)Nc2ccccc21 | – | 95.1% | 6.00 | Dose-dependent effect | Active | –
3 | O=C(/C=C/c1ccc(O)c(O)c1)O[C@@H]1C[C@](O)(C(=O)O)C[C@@H](OC(=O)/C=C/c2ccc(O)c(O)c2)[C@H]1O | Active | 81.3% | 5.55 | Dose-dependent effect | – | –
4 | CC(C)=C/C=C1/C(=O)N(C)c2ccccc21 | – | 80.2% | 6.10 | Dose-dependent effect | Active | –
5 | CC(C)=C/C=C1\C(=O)N(C)c2ccccc21 | – | 77% | 5.89 | Dose-dependent effect | Active | –
6 | COC(=O)/C=C/c1ccc(O)c(OC)c1 | Active | 99.2% | 5.74 | Dose-dependent effect | – | –
7 | COc1ccc(/C=C/C(=O)OCC(=O)Cc2ccc(O)c(O)c2)cc1O [CIMIRACEMATE A] | – | 104% | 5.96 | Dose-dependent effect | – | Active
